This is an account of results in patent US9629835B1, “Method for treating tau-associated diseases” (NATIONAL TAIWAN NORMAL UNIVERSITY, priority 2016, dated 2017).

Series [1] has as its system ΔK280 tauRD-DsRed 293 cells. Description: DsRed fluorescence (tau aggregation) in Tet-On ΔK280 tauRD-DsRed 293 cells, high content analysis. It counts as cell-based, human. Conditions: for DsRed fluorescence intensity relative to untreated cells (100%): 10 μM, 8 h pre-treatment, doxycycline 3 days. The method, then: We used HEK-293 human cells expressing a DsRed-tagged proaggregation mutant (ΔK280) of the C-terminal repeat domain of tau (tauRD-Gln^244-Glu^372 of the longest tau^441 isoform). The recombinant tauRD-DsRed construct was under the control of a hybrid human cytomegalovirus (CMV)/TetO2 promoter that can be induced by adding doxycycline. The Tet-On ΔK280tauRD-DsRed293 cells were grown in medium containing blasticidin (5 μg/mL) and hygromycin (100 μg/mL) and were used for the following evaluation.
(§1) TauRD-DsRed 293 cells were plated into 96-well plates, grown for 24 h, and treated with 0.1, 1, 10 μM of congo red (a known tau aggregation inhibitor), compound (I), compound (II), and compound (III) (SB216763) for 8 h. Then doxycycline (Dox; 1 μg/mL) was added for 3 days and DsRed fluorescence was assessed using a high content analysis system (HCA) system (ImageXpressMICRO, Molecular Devices).
According to the fluorescence microscopy images of untreated cells, and cells treated with congo red, compound (I), compound (II), and SB216763, the quantification results are shown in FIG. 1 which were analyzed related to 100% fluorescence intensity of the untreated cells. […] Based on the results that described above, compound (I) and compound (II) have the ability to decrease tau-aggregation in tauRD-DsRed 293 cells (*p<0.05, **p<0.01).

Another series concerns the target T1, Recombinant human GSK-3β (Homo sapiens, UniProt P49841).
T1 construct: purchased Promega V1991
Description: GSK-3β kinase activity, ADP-Glo Kinase Assay. Format: biochemical. The method, then:
GSK-3β kinase activity was measured in the presence of the tested compounds (I) and (II) using ADP-Glo™ Kinase Assay system (Promega). Recombinant human GSK-3β (Product code V1991, Promega) was used as the enzyme source, and the GSK-3β substrate was derived from human muscle glycogen synthase 1 peptide ([…](pS)EDEEE) which corresponded to a region of glycogen synthase that was phosphorylated by GSK-3β. Reactions were performed at 30° C. for 30 minutes in the 25 μL mixture that contained 25 μM ATP, 0.2 mg/mL GSK-3β substrate, 1 ng of GSK-3β, and serial dilutions of compound (I), compound (II), or compound (III). Kinase activity data were measured as relative light units (RLU) directly correlated with the amount of ADP produced.
The IC50 values of compound (I), compound (II), and compound (III) were determined by using SigmaPLOT software. […] When the concentration of compound (I) and compound (II) were […] μM, the residual activities of GSK-3β of compounds (I) and (II) were 36.1±1.1%, and 90.9±6.6%, respectively.
For orientation: ADP-Glo first removes unused ATP, then detects ADP through luciferase.

The nature of series [2]: Cytotoxicity in tauRD-DsRed 293 cells. Format: cell-based. Conditions: human, 50% of viability. The method, then: as §1
Also, IC50 cytotoxicity of tauRD-DsRed 293 cells is shown in FIG. 2, wherein the standard line represents 50% of viability.

A further series relates to GSK-3β. Description: Western blot of total GSK-3β and phosphorylated GSK-3β (Ser9) in tauRD-DsRed SH-SY5Y cells. Particulars: 10 μM. Format: cell-based, human. The method, then: We used human neuroblastoma cells (SH-SY5Y) expressing a DsRed-tagged proaggregation mutant (ΔK280) of the C-terminal repeat domain of tau (tauRD-Gln^244-Glu^372 of the longest tau^441 isoform). The recombinant tauRD-DsRed construct was under the control of a hybrid human cytomegalovirus (CMV)/TetO2 promoter that can be induced by adding doxycycline. The Tet-On ΔK280 tauRD-DsRed SH-SY5Y cells were grown in medium containing blasticidin (5 μg/mL) and hygromycin (100 μg/mL) and were then used for the following evaluation. […]
First, SH-SY5Y tauRD-DsRed cells were seeded in 6-well plates (1×10^5/well) in a medium containing all-trans retinoic acid ([…] Sigma) for inducing the neural differentiation. […] Next, immunoreactive bands were detected using horseradish peroxidase-conjugated goat anti-mouse, goat anti-rabbit, or donkey anti-goat IgG antibodies (1:5000; GeneTex) and chemiluminescent substrate (Millipore) for evaluating the expression levels thereof in cells.
The expression levels of total GSK-3β and phosphorylated GSK-3β are shown in FIG. 3 and the quantifications thereof are shown in FIG. 4 (*p<0.05, ***p<0.001). […]
(In western blotting, separated proteins are transferred to a membrane and probed.)

The test system of series [3] is mouse hippocampal primary culture cells. Kind of series: Mouse hippocampal primary culture under tau toxicity induced by Wortmannin and GF 109203X. It counts as cell-based. Particulars: 1 μM, 12 hours, with 10 nM Wortmannin and GF 109203X. The method, then:
The mouse hippocampal primary culture cells were isolated from the hippocampi of C57BL/6J mouse embryos at days 16-18. On days in vitro (DIV) 4 and 7, 2 μM of cytosine arabinoside was added to the culture medium to reduce the glial cell populations. On DIV 9, the cells were treated with 10 nM of Wortmannin (WT) and GF 109203X (GFX) to induce tau hyperphosphorylation to mimic an AD condition.
1 μM of compound (I) or compound (II) were then added to the cells at DIV 9. Cells were harvested 12 hours later for immunocytochemical staining with NeuN (for neuron) and MAP2 (for neurite morphology) antibodies.
The quantification of neuron numbers (NeuN relative expression levels), neurite outgrowth, and the relative number of neuron branches are shown in FIG. 7 to FIG. 9 (*, vs. control; #, vs. WT+GFX. * p<0.05; **/##p<0.01; ###p<0.001). […] The results indicated significant neuronal protective effects of compound (I) and compound (II).

T1 sequence (P49841 whole entry): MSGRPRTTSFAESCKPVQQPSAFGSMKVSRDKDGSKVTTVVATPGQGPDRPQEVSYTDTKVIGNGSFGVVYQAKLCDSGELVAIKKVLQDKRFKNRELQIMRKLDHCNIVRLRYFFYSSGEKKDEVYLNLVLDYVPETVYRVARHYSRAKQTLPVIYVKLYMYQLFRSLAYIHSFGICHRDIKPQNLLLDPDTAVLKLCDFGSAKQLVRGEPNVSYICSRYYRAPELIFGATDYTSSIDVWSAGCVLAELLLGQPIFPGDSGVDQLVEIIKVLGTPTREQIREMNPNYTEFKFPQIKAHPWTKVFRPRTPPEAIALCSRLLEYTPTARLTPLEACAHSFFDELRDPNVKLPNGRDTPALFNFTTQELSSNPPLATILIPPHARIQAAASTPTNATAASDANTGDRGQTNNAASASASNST

With `CN1CC(C2=C(c3ccc(Cl)cc3Cl)C(=O)NC2=O)c2ccccc21` (centres unmarked) [compound (III), reference compound], the “effect on tauRD-DsRed fluorescence” value in series [1] (0.1, 1, 10 μM) is listed as “no effect”.

With `Nc1c(/N=N/c2ccc(-c3ccc(/N=N/c4cc(S(=O)(=O)O)c5ccccc5c4N)cc3)cc2)cc(S(=O)(=O)O)c2ccccc12` [congo red], the “DsRed fluorescence intensity relative to untreated cells (100%)” value in series [1] was 110%.

Usually IC50 stands for the concentration that gives 50% inhibition. With `Cc1ccc(-c2cc(-c3ccncc3)nc3ccccc23)cc1` [compound (I)], the remaining activity at 0.018 µM on Recombinant human GSK-3β (compound concentration 0.018 μM, read-out: residual activity of GSK-3β) is 36.1 ± 1.1%. Also, the IC50 came out at 0.0002 µM on Recombinant human GSK-3β (recombinant human GSK-3β, 25 μM ATP, 30° C., 30 minutes) and 25.7 µM in series [2]. In series [1], the “DsRed fluorescence intensity relative to untreated cells (100%)” value turned out to be 116%. For the same compound, the “total GSK-3β expression vs untreated cells” value in the series on GSK-3β is recorded as “remained about the same without significant changes”. Moreover, the “neuronal protective effect (NeuN neuron number, neurite length, neurite branches)” value in series [3] is reported as “alleviate the reduction of neuronal survival rate, neurite length, and/or neurite branches”.
